The text below walks through data of US20170253601A1, “Substituted Pyrrolidine Compounds” (EPIZYME, INC., priority 2014, published 2017).

SMILES strings stand for the structures.

As a reminder, the IC50 is the point on the concentration scale where inhibition reaches its midpoint.

In the first assay the target is T1, SMYD2 (Homo sapiens, UniProt Q9NRG4).
T1 construct: Full length SMYD2 (NP 064582.2) was cloned; His6 (N, cleaved yes); FLAG (N); made in house; host or cells: Sf9 insect cells
T1 sequence (Q9NRG4 whole entry): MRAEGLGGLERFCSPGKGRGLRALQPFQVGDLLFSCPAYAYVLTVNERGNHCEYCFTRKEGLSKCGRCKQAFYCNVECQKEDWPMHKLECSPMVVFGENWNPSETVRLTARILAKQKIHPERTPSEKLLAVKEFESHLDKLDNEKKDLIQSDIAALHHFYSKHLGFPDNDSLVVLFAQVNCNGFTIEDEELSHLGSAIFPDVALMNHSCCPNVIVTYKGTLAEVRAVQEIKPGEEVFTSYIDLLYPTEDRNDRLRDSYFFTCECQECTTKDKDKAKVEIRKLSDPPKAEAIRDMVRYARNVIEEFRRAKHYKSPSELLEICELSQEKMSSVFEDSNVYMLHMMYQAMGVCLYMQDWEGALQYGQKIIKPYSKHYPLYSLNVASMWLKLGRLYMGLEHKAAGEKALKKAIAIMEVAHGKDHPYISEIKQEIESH
Kind of assay: SMYD2 Biochemical Assay (3H-SAM, biotinylated peptide substrate, Flashplate). The following applies: IC50 values are an average of n = 1 to n = 50; read-out: SMYD2 Biochem IC50 (μM)*. The source says:
S-adenosylmethionine (SAM), S-adenosylhomocysteine (SAH), bicine, Tween20, dimethylsulfoxide (DMSO), bovine skin gelatin (BSG), and Tris(2-carboxyethyl)phosphine hydrochloride (TCEP) were purchased from Sigma-Aldrich at the highest level of purity possible. ^3H-SAM was purchase from American Radiolabeled Chemicals with a specific activity of 80 Ci/mmol. 384-well streptavidin Flashplates were purchased from PerkinElmer.
Peptide was synthesized with a N-terminal linker-affinity tag motif and a C-terminal amide cap by 21st Century Biochemicals. The peptide was high-performance liquid chromatography (HPLC) purified to greater than 95% purity and confirmed by liquid chromatography mass spectrometry (LC-MS). The sequence was […](K-Biot)-amide. (SEQ ID No: 3)
Full length SMYD2 (NP 064582.2) was cloned into a pFastbac-Htb-lic vector with an N-terminal His6 tag and FLAG tag, preceded by a TEV protease cleavage site. The protein was expressed in Sf9 insect cells. Cells were resuspended in lysis buffer (25 mM HEPES-NaOH, pH 7.5, 200 mM NaCl, 5% glycerol, and 5 mM β-ME) and lysed by sonication. The protein was purified by Ni-NTA (Qiagen), followed by TEV cleavage to remove the His6 tag, subtractive Ni-NTA (Qiagen), and gel filtration chromatography using an […] (GE Healthcare). Purified protein was stored in 20 mM Tris-HCl, pH 8.0, 100 mM NaCl, and 1 mM TCEP.
The assays were all performed in a buffer consisting of 20 mM Bicine (pH=7.6), 1 mM TCEP, 0.005% Bovine Skin Gelatin, and 0.002% Tween20, prepared on the day of use. Compounds in 100% DMSO (1 ul) were spotted into a polypropylene 384-well V-bottom plates (Greiner) using a Platemate Plus outfitted with a 384-channel head (Thermo Scientific). DMSO (1 ul) was added to Columns 11, 12, 23, 24, rows A-H for the maximum signal control and 1 ul of SAH, a known product and inhibitor of SMYD2, was added to columns 11, 12, 23, 24, rows I-P for the minimum signal control. A cocktail (40 ul) containing the SMYD2 enzyme was added by Multidrop Combi (Thermo-Fisher). The compounds were allowed to incubate with SMYD2 for 30 min at room temperature, then a cocktail (10 ul) containing ^3H-SAM and peptide was added to initiate the reaction (final volume=51 ul). The final concentrations of the components were as follows: SMYD2 was 1.5 nM, ^3H-SAM was 10 nM, and peptide was 60 nM, SAH in the minimum signal control wells was 1000 uM, and the DMSO concentration was 2%. The assays were stopped by the addition of non-radioactive SAM (10 ul) to a final concentration of 600 uM, which dilutes the ^3H-SAM to a level where its incorporation into the peptide substrate is no longer detectable. 50 ul of the reaction in the 384-well polypropylene plate was then transferred to a 384-well Flashplate and the biotinylated peptides were allowed to bind to the streptavidin surface for at least 1 hour before being washed three times with 0.1% Tween20 in a Biotek ELx405 plate washer. The plates were then read in a PerkinElmer TopCount plate reader to measure the quantity of ^3H-labeled peptide bound to the Flashplate surface, measured as disintegrations per minute (dpm) or alternatively, referred to as counts per minute (cpm).
Where dpm=disintegrations per minute, cmpd=signal in assay well, and min and max are the respective minimum and maximum signal controls.
Where top and bottom are the normally allowed to float, but may be fixed at 100 or 0 respectively in a 3-parameter fit. The Hill Coefficient normally allowed to float but may also be fixed at 1 in a 3-parameter fit. I is the compound concentration.
SMYD2 biochemical assay data for representative Compounds of the Disclosure are presented in Tables 1-3 in the column titled “SMYD2 Biochem IC50 (μM).”
`C[C@@H]1CN(CC2CC2)C[C@H]1NC(=O)c1cc(C2CC2)on1` (racemic) [compound 126, (±)-trans-5-cyclopropyl-N-[1-(cyclopropyl-methyl)-4-methyl-pyrrolidin-3-yl]-1,2-oxazole-3-carboxamide]: the IC50 was above 50 µM.

`C[C@H]1CN(CC(N)=O)C[C@H]1NC(=O)c1cc(C2CC2)on1` (racemic) [compound 303, (±)-cis-N-[1-(carbamoyl-methyl)-4-methyl-pyrrolidin-3-yl]-5-cyclo-propyl-1,2-oxazole-3-carboxamide]: the IC50 is above 50 µM.

For `CC(C)c1cc(C(=O)N[C@H]2C[C@@H](CNC(=O)C3CCCCC3)N(C3CC3)C2)no1` (racemic) [compound 224, (±)-cis-N-[5-[(cyclohexyl-formamido)methyl]-1-cyclopropylpyrrolidin-3-yl]-5-(propan-2-yl)-1,2-oxazole-3-carboxamide], the IC50 is above 50 µM.

`CCC(c1ccccc1)N1C[C@H](C)[C@H](NC(=O)c2cc(C3CC3)on2)C1` (relative stereo) [compound 329, cis-5-cyclopropyl-N-[4-methyl-1-(1-phenyl-propyl)pyrrolidin-3-yl]-1,2-oxazole-3-carboxamide]: the IC50 is 1.15 µM.

`C[C@@H]1CN(CC2CCCOC2)C[C@H]1NC(=O)c1cc(C2CC2)on1` (mixture of isomers) [compound 127, (±)-trans-5-cyclopropyl-N-[4-methyl-1-(oxan-3-ylmethyl)pyrrolidin-3-yl]-1,2-oxazole-3-carboxamide]: the IC50 was above 50 µM.

As to `CC(C)N1C[C@H](C)[C@H](NC(=O)c2cc(C3CCC3)on2)C1` (racemic) [compound 248, (±)-cis-5-cyclobutyl-N-[4-methyl-1-(propan-2-yl)pyrrolidin-3-yl]-1,2-oxazole-3-carboxamide], the IC50 turned out to be 10.5 µM.

`CC(C)N1C[C@@H](NC(=O)c2cc(C3CC3)on2)[C@](C)(O)C1` [compound 245, 5-cyclopropyl-N-[(3R,4R)-4-hydroxy-4-methyl-1-(propan-2-yl)pyrrolidin-3-yl]-1,2-oxazole-3-carboxamide]: the IC50 was 6.8 µM.

For the molecule `C[C@H]1CN(Cc2ccc3nonc3c2)C[C@H]1NC(=O)c1cc(C2CC2)on1` (racemic) [compound 222, (±)-cis-N-[1-(2,1,3-benzoxadiazol-5-ylmethyl)-4-methyl-pyrrolidin-3-yl]-5-cyclopropyl-1,2-oxazole-3-carboxamide], the IC50 was found to be 41.6 µM.

With `CC(C)N1C[C@H](C)[C@H](NC(=O)c2cc(C3CN(C)C3)on2)C1` (racemic) [compound 343, (±)-cis-N-[4-methyl-1-(propan-2-yl)pyrrolidin-3-yl]-5-(1-methylazetidin-3-yl)-1,2-oxazole-3-carboxamide], the IC50 is above 50 µM.

With `CC(N1C[C@@H](C)[C@H](NC(=O)c2cc(C3CC3)on2)C1)C(F)(F)F` (stereo partly drawn) [compound 247, trans-5-cyclopropyl-N-[(3S,4R)-4-methyl-1-(1,1,1-trifluoropropan-2-yl)pyrrolidin-3-yl]-1,2-oxazole-3-carboxamide], the IC50 is above 50 µM.

On to `C[C@H]1CN(c2ncccn2)C[C@H]1NC(=O)c1cc(C2CC2)on1` (racemic) [compound 339, (±)-cis-5-cyclopropyl-N-[4-methyl-1-(pyrimidin-2-yl)pyrrolidin-3-yl]-1,2-oxazole-3-carboxamide], for which the IC50 was above 50 µM.

For the molecule `C[C@H]1CN(Cc2ccc3ncccc3c2)C[C@H]1NC(=O)c1cc(C2CC2)on1` (racemic) [compound 332, (±)-cis-5-cyclopropyl-N-[4-methyl-1-(quinolin-6-ylmethyl)pyrrolidin-3-yl]-1,2-oxazole-3-carboxamide], the 50% inhibitory concentration (IC50) was 24.2 µM.

Consider `C[C@H]1CN(CCC2CCN(C(=O)OC(C)(C)C)CC2)C[C@H]1NC(=O)c1cc(C2CC2)on1` (racemic) [compound 169, (±)-cis-tert-butyl 4-{2-[3-(5-cyclopropyl-1,2-oxazole-3-amido)-4-methylpyrrolidin-1-yl]ethyl}piperidine-1-carboxylate], for which the IC50 was 6.92 µM.

Take `C[C@@H]1CN(c2cnccn2)C[C@H]1NC(=O)c1cc(C2CC2)on1` (racemic) [compound 292, (±)-trans-5-cyclopropyl-N-[4-methyl-1-(pyrazin-2-yl)pyrrolidin-3-yl]-1,2-oxazole-3-carboxamide]: the IC50 was above 50 µM.

With `CC(C)CCN1C[C@H](C)[C@H](NC(=O)c2cc(C3CC3)on2)C1` (racemic) [compound 213, (±)-cis-5-cyclopropyl-N-[4-methyl-1-(3-methylbutyl)pyrrolidin-3-yl]-1,2-oxazole-3-carboxamide], the IC50 came to 1.62 µM.

On to `COc1ccc(CN2C[C@H](C)[C@H](NC(=O)c3cc(C4CC4)on3)C2)c(OC)c1` (racemic) [compound 212, (±)-cis-5-cyclopropyl-N-[1-[(2,4-dimethoxy-phenyl)methyl]-4-methylpyrrolidin-3-yl]-1,2-oxazole-3-carboxamide], for which the IC50 stood at 5.23 µM.

In the case of `C[C@@H]1CN(Cc2c[nH]c3cc(Cl)ccc23)C[C@H]1NC(=O)c1cc(C2CC2)on1` (racemic) [compound 203, (±)-trans-N-[1-[(6-chloro-1H-indol-3-yl)methyl]-4-methyl-pyrrolidin-3-yl]-5-cyclopropyl-1,2-oxazole-3-carboxamide], the IC50 is 48.3 µM.

Consider `CC(C)N1C[C@H](NC(=O)c2cc(C3CC3)on2)C[C@@H]1COCC#Cc1ccccc1` (stereo in doubt) [compound 238, (±)-cis-5-cyclopropyl-N-[5-{[(3-phenylprop-2-yn-1-yl)oxy]methyl}-1-(propan-2-yl)pyrrolidin-3-yl]-1,2-oxazole-3-carboxamide], for which the IC50 amounted to 39.7 µM.

The assay is the same for the next values; noted with them: Table 1; average of n = 1 to n = 50; read-out: SMYD2 Biochem IC50.
With `CC(C)N1C[C@@H](C)[C@H](NC(=O)c2cc(C3CC3)on2)C1` [compound 41, 5-cyclopropyl-N-((3S,4R)-1-isopropyl-4-methylpyrrolidin-3-yl)isoxazole-3-carboxamide], the IC50 was 18.2 µM.

The assay is the same for the next values; noted with them: Table 2; average of n = 1 to n = 50; read-out: SMYD2 Biochem IC50.
As to `C[C@H]1CN(C(=O)CO)C[C@@H]1NC(=O)c1cc(C2CC2)on1` (racemic) [compound 93, (±)-trans-5-cyclopropyl-N-(1-(2-hydroxyacetyl)-4-methylpyrrolidin-3-yl)isoxazole-3-carboxamide], the IC50 was above 50 µM.

Take `C[C@H]1C[C@@H](NC(=O)c2cc(C3CC3)on2)CN1` (racemic) [compound 63, (±)-cis 5-cyclopropyl-N-(5-methylpyrrolidin-3-yl)isoxazole-3-carboxamide]: the IC50 is above 50 µM.

For the molecule `C[C@@H]1CN(C(=O)CO)C[C@@H]1NC(=O)c1cc(C2CC2)on1` (racemic) [compound 69, (±)-cis-5-cyclopropyl-N-(1-(2-hydroxyacetyl)-4-methylpyrrolidin-3-yl)isoxazole-3-carboxamide], the IC50 is above 50 µM.

Regarding `C[C@@H]1CN(C2CCOCC2)C[C@H]1NC(=O)c1cc(C2CC2)on1` (racemic) [compound 97, (±)-trans-5-cyclopropyl-N-(4-methyl-1-(tetrahydro-2H-pyran-4-yl)pyrrolidin-3-yl)isoxazole-3-carboxamide], the IC50 was above 50 µM.

Consider `C[C@@H]1CN(C2CCN(C)CC2)C[C@H]1NC(=O)c1cc(C2CC2)on1` (racemic) [compound 105, (±)-trans-5-cyclopropyl-N-((3S,4R)-4-methyl-1-(1-methylpiperidin-4-yl)pyrrolidin-3-yl)isoxazole-3-carboxamide], for which the IC50 is above 50 µM.
